{"source": "patent US9821002B2", "about": "“Method for alleviating radiation injury with isorhamnetin-3-O-β-D-glucoside” (Sinotai Oncology Associate., Ltd., priority 2015, dated 2017)", "key": {"NMuMG cells": {"test_system": "NMuMG cells", "assay": "Apoptosis assay (FITC Annexin V/PI) after ultraviolet irradiation", "type": "cell-based, mouse", "conditions": "2 h pretreatment, ultraviolet 30 mJ/cm^2, 24 hours, mean ± SEM", "description": "(§1) Four groups of NMuMG cells (i.e., a normal control group referred to as Normal Control Group 1-A, an ultraviolet control group referred to as UV Control Group 1-A, and two experimental groups referred to as Experimental Groups 1-A to 2-A) and four groups of HaCaT cells (i.e., a normal control group referred to as Normal Control Group 1-B, an ultraviolet control group referred to as UV Control Group 1-B, and two experimental groups referred to as Experimental Groups 1-B to 2-B), were prepared based on the procedure set forth in “Source and cultivation of cell lines” of “Experimental materials”. The cells in each group were cultivated using 5 mL of a corresponding medium shown in Table 1 and a 6-cm Petri dish in an incubator (37° C., 5% CO2) for 24 hours. […]\n(§2) Subsequently, the stained cells were analyzed using BD Accuri™ C6 flow cytometry, in which cells that could be stained with FITC Annexin V but not with PI (i.e., FITC Annexin V positive and PI negative) represented cells that were induced with early apoptosis; cells stained with both FITC Annexin V and PI (i.e., FITC Annexin V positive and PI positive) represented cells that were induced with late apoptosis; and cells that could not be stained with FITC Annexin V and PI (i.e., FITC Annexin V negative and PI negative) represented viable cells. […]"}, "HaCaT cells": {"test_system": "HaCaT cells", "assay": "Apoptosis assay (FITC Annexin V/PI) after ultraviolet irradiation", "type": "cell-based, human", "conditions": "2 h pretreatment, ultraviolet 50 mJ/cm^2, 48 hours, mean ± SEM", "description": "as §1, §2"}}}
{"molecule": "COc1cc(-c2oc3cc(O)cc(O)c3c(=O)c2O[C@@H]2O[C@H](CO)[C@@H](O)[C@H](O)[C@H]2O)ccc1O", "note": "[isorhamnetin-3-O-β-D-glucoside]", "values": [{"measurement": "Apoptosis percentage", "setting": "NMuMG cells; 15 μM", "result": "10.6 ± 2.8", "unit": "%"}, {"measurement": "Apoptosis percentage", "setting": "NMuMG cells; 30 μM", "result": "10.5 ± 2.5", "unit": "%"}, {"measurement": "Apoptosis percentage", "setting": "HaCaT cells; 50 μM", "result": "26.13 ± 7.26", "unit": "%"}, {"measurement": "Apoptosis percentage", "setting": "HaCaT cells; 100 μM", "result": "23 ± 2.19", "unit": "%"}]}
